Earlier results in patent US8586092B2 (Xi'an Libang Pharmaceutical Technology Co., Ltd., priority 2009, dated 2013).

Legend:
rat = conditions: orally administered to rat
mouse = conditions: in vivo, sc

O=C(OCc1ccccc1)c1ccccc1 [Benzyl benzoate]
LD50 (rat): 500 mg/kg

C[C@]12CC[C@@H]3c4ccc(O)cc4C[C@@H](CCCCCCCCC[S+]([O-])CCCC(F)(F)C(F)(F)F)[C@H]3[C@@H]1CC[C@@H]2O (stereo partly drawn) [Fulvestrant, 7-alpha-[9-(4,4,5,5,5-pentafluoropentylsulphinyl)nonyl]estra-1,3,5-(10)-triene-3,17-beta-diol]
aqueous solubility: around 10 ng/ml

CCO [ethanol]
LD50 (mouse): 8285 mg/kg
